From patent US8288363B2, “Medicaments for anti-herpes virus treatments” (ASE & BIO, priority 2006, dated 2012)

How the values were obtained:
Assay in all cases: Anti-herpes activity, viability of infected vero cells (neutral red)
Conditions in all cases: incubation time 72 hours
[1] = system: acyclovir-resistant strain HSV-1R; format: cell-based, herpes simplex virus 1
Method: (§1) This method is based on the principle that living cells absorb neutral red, which is a vital stain. The optical density of the medium was measured at the maximum absorption wavelength of neutral red, that is to say 540 nm, using a spectrophotometer (SpectraCount™, microplate photometer, Packard). The optical density at 540 nm is proportional to the number of living cells in an infected culture (McLaren et al., Antiviral Research, 1983; 3: 223-234 and Langlois et al., Standardization, 1986, 14: 201-211).
(§2) The effective concentration (EC 50%), that is to say the concentration of the sulphated polysaccharide which enables infection of 50% of the cells of a culture to be inhibited, was measured for each viral strain.
(§3) The determination of the EC50 was carried out in 96-well microtitre plates in accordance with the following protocol. Vero cells are seeded at a cell density of 3.5·10^4 cells/well in 100 μl of MEM medium containing 8% FCS. For each viral suspension defined by its MOI: • the negative control column was filled with 100 μl of MEM medium with 8% FCS, • the virus control column was filled with 50 μl of viral suspension having the required MOI and with 50 μl of MEM medium with 8% FCS, • the PS3 control column was filled with 50 μl of PS3 having the desired concentration range or with 50 μl of acyclovir (Zovirax 0.05-5 μg/ml • finally, all the other columns were filled successively with 50 μl of PS3 having the required concentration range or with 50 μl of acyclovir (Zovirax 0.05-5 μg/ml) and with 50 μl of the viral suspension having the desired MOI.
(§4) The EC50 corresponding to the concentration which enables the cytopathic effect of the virus to be reduced by 50% was calculated in accordance with the following formula: […]
(§5) The anti-herpes activity of PS3 was evaluated and compared on each viral suspension of HSV-1, HSV-1R, HSV-2 and HSV-2R defined by an MOI of 0.01 ID50/cell for a cell concentration of 350,000 cells/ml, after incubation times of 48 and 72 hours.
(§6) This series of experiments was carried out applying the protocol enabling the EC50 to be determined, as described in Example 3.
(§7) The therapeutic indices (TI) of PS3, as well as three other reference products, that is to say acyclovir, dextran sulphate and phycarine, were determined in parallel for each viral strain.
(§8) The therapeutic index (TI) represents the ratio between the maximum non-toxic dose (or a dose inducing a quantified toxicity) and the dose inducing a favourable pharmacological effect.

HSV-1 = format: cell-based, herpes simplex virus 1
Method: as §1, §2, §3, §4, §5, §6, §7, §8

[2] = system: acyclovir-resistant strain HSV-2R; format: cell-based, herpes simplex virus 2
Method: as §1, §2, §3, §4, §5, §6, §7, §8

HSV-2 = format: cell-based, herpes simplex virus 2
Method: as §1, §2, §3, §4, §5, §6, §7, §8

Substance: dextran sulphate [reference compound]
- Therapeutic index HSV-1R [1]: >641
- Therapeutic index HSV-1 (HSV-1): >868
- Therapeutic index HSV-2R [2]: >4,545
- Therapeutic index HSV-2 (HSV-2): >3,571
